Reference: ChEMBL document CHEMBL3991601, “The target landscape of clinical kinase drugs” (Science, 2017)
pKd: −log10 of the molar value. Active and inactive are the calls of the source.

Key:
[1] = target: T1, Discoidin domain-containing receptor 2 (Homo sapiens, UniProt Q16832)
T1 sequence (Q16832 whole entry): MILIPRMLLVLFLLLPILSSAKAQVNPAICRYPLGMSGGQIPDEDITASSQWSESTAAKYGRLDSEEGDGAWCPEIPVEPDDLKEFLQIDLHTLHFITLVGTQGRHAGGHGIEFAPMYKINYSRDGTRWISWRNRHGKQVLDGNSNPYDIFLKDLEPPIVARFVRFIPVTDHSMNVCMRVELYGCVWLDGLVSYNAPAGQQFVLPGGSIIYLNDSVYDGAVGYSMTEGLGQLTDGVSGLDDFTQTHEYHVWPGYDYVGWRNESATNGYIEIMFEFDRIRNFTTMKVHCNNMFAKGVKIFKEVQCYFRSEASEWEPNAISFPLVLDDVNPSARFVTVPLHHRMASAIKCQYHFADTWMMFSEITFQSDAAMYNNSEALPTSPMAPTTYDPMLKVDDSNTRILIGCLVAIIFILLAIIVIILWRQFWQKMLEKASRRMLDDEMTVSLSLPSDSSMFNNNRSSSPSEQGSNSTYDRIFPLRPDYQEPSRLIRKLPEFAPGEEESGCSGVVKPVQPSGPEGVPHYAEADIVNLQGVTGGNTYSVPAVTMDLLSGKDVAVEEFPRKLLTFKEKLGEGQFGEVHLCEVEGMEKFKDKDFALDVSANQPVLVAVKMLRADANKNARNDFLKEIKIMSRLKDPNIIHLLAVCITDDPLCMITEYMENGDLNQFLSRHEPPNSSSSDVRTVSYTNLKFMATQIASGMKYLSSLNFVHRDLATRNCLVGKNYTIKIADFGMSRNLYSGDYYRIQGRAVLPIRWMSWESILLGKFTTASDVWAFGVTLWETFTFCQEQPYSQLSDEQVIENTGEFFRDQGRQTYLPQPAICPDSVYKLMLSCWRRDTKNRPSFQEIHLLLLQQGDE

[2] = target: Serine/threonine-protein kinase B-raf (Homo sapiens, UniProt P15056)
[3] = target: T2, MAP/microtubule affinity-regulating kinase 4 (Homo sapiens, UniProt Q96L34)
T2 sequence (Q96L34 whole entry): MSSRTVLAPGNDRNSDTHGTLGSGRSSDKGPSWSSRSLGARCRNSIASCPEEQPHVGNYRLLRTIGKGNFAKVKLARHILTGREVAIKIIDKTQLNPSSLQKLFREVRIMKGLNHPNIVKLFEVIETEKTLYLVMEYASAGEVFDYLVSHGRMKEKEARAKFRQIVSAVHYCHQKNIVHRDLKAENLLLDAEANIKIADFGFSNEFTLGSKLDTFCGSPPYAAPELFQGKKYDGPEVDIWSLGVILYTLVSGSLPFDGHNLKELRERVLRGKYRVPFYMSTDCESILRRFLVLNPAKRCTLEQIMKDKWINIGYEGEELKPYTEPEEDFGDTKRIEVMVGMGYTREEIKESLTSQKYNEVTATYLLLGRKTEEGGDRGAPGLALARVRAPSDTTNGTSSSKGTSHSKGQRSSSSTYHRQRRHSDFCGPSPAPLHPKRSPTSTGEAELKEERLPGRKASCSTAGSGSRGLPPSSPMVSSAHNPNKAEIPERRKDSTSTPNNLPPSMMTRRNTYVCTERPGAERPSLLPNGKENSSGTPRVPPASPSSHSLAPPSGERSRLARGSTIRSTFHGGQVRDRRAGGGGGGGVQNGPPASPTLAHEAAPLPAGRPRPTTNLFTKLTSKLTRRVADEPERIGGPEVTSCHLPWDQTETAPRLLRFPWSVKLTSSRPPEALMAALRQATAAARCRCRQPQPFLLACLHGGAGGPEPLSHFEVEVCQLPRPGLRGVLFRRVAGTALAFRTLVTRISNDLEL

[4] = target: T3, DNA replication licensing factor MCM4 (Homo sapiens, UniProt P33991)
T3 sequence (P33991 whole entry): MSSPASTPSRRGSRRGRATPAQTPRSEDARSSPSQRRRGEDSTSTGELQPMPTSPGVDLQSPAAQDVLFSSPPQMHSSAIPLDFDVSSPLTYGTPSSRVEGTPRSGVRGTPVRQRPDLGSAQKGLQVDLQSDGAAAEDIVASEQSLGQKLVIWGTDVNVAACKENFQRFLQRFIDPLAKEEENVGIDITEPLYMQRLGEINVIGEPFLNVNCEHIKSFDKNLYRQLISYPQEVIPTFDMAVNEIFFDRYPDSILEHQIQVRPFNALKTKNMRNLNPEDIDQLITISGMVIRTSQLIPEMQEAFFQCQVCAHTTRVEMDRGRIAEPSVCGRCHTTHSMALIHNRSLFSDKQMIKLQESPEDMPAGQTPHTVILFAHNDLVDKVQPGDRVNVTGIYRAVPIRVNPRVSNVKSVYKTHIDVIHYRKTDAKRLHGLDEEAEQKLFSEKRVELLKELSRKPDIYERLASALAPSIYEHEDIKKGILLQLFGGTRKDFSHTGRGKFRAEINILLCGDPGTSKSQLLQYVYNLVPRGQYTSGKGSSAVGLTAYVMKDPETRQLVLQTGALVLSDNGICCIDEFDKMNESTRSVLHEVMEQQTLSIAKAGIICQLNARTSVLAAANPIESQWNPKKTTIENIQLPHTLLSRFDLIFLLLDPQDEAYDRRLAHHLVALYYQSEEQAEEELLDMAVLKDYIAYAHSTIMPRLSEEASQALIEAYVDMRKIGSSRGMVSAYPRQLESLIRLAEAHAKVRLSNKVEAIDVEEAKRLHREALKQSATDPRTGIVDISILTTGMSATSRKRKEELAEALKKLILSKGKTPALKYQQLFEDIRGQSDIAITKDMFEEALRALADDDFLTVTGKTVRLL

[5] = target: Serine/threonine-protein kinase MRCK beta (Homo sapiens, UniProt Q9Y5S2)
[6] = target: Adenosine kinase (Homo sapiens, UniProt P55263)
[7] = target: Serine/threonine-protein kinase MRCK alpha (Homo sapiens, UniProt Q5VT25)
[8] = target: Tyrosine-protein kinase Fyn (Homo sapiens, UniProt P06241)
Note: in the data inactive means no Kd found up to 30 µM.

Sequence of Serine/threonine-protein kinase B-raf (P15056 whole entry): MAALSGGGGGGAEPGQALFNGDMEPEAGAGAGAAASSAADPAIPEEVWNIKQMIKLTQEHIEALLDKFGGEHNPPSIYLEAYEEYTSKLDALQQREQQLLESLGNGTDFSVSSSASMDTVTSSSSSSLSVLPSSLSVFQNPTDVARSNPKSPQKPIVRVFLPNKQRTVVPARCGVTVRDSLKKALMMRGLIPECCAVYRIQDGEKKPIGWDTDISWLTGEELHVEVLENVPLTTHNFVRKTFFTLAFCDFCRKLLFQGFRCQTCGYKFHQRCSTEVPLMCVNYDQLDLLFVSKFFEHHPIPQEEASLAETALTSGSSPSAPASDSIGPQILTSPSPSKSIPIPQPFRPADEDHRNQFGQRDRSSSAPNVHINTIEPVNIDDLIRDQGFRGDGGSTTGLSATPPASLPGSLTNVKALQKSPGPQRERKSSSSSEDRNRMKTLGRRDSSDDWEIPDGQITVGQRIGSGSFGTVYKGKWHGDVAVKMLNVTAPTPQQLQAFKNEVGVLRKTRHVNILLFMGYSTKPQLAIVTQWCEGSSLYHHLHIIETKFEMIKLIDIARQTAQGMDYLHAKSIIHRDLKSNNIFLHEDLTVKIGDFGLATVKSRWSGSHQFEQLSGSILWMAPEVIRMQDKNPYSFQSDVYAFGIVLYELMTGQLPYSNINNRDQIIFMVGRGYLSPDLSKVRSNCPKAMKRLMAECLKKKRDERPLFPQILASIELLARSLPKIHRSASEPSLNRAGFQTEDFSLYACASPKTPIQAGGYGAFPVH
Sequence of Adenosine kinase (P55263 whole entry): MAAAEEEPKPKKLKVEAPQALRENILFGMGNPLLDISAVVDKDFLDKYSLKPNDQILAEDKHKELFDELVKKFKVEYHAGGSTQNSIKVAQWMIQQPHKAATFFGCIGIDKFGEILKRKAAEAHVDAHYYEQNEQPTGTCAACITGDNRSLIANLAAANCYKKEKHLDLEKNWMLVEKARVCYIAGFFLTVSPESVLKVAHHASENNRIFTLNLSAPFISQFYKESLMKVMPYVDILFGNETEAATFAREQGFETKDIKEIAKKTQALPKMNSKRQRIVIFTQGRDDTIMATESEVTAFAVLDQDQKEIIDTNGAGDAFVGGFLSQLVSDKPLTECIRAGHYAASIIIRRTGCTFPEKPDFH
Sequence of Serine/threonine-protein kinase MRCK alpha (Q5VT25 whole entry): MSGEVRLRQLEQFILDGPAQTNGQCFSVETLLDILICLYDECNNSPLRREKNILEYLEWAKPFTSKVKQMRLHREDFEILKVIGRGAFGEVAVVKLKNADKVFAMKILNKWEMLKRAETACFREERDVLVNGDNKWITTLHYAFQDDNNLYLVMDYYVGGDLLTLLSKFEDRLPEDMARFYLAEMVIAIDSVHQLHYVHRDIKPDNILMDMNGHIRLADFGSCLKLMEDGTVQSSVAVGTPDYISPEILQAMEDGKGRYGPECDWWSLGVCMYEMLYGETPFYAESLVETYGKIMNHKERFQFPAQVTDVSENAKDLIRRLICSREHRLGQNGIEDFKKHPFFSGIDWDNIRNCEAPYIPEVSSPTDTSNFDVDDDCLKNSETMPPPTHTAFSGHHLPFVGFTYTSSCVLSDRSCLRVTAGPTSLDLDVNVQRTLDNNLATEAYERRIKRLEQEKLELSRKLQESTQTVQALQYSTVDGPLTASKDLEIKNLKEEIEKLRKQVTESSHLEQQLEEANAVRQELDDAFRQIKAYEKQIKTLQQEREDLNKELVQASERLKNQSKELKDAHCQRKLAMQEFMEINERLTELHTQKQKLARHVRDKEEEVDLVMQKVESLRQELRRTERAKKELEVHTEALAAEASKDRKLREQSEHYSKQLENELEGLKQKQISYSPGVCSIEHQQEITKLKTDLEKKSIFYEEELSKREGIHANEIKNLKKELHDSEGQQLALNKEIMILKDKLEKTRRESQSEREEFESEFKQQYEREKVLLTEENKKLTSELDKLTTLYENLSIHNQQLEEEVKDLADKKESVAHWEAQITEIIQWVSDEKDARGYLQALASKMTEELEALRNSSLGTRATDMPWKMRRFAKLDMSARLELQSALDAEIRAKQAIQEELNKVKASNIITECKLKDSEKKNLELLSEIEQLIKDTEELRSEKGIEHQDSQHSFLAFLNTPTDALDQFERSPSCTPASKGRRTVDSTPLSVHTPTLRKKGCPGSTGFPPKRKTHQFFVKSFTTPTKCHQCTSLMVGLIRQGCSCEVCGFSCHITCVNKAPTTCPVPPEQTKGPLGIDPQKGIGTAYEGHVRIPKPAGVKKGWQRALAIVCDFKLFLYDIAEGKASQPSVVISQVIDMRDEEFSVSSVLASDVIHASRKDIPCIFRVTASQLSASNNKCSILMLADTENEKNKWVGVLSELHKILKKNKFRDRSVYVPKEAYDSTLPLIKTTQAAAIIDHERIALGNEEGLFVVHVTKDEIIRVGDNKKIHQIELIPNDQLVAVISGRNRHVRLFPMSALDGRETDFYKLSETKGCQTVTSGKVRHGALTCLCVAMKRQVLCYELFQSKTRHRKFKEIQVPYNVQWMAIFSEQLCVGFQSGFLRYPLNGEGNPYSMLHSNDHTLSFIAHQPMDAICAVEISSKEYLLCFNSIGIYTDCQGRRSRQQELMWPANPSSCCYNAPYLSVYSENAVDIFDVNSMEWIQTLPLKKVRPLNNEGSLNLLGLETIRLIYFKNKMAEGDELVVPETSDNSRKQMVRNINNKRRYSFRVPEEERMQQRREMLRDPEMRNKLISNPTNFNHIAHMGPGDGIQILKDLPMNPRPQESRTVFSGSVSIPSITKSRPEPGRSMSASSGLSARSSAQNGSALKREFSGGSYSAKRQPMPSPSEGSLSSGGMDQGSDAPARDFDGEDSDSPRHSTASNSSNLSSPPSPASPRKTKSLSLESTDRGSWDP
Sequence of Tyrosine-protein kinase Fyn (P06241 whole entry): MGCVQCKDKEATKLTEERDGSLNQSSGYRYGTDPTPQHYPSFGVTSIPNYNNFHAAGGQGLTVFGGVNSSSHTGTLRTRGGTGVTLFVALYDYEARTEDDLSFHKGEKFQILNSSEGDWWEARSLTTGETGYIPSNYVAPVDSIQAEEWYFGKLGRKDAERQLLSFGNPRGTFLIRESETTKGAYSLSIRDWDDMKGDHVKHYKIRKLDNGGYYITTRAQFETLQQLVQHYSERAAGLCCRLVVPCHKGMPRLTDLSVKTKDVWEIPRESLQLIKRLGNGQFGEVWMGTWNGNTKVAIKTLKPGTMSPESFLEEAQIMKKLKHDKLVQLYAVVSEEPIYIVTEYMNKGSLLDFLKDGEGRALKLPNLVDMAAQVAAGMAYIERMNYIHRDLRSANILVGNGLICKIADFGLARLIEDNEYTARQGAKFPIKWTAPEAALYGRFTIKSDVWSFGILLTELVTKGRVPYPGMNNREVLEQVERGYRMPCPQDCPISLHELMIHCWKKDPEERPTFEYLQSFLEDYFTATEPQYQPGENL
Sequence of Serine/threonine-protein kinase MRCK beta (Q9Y5S2 whole entry): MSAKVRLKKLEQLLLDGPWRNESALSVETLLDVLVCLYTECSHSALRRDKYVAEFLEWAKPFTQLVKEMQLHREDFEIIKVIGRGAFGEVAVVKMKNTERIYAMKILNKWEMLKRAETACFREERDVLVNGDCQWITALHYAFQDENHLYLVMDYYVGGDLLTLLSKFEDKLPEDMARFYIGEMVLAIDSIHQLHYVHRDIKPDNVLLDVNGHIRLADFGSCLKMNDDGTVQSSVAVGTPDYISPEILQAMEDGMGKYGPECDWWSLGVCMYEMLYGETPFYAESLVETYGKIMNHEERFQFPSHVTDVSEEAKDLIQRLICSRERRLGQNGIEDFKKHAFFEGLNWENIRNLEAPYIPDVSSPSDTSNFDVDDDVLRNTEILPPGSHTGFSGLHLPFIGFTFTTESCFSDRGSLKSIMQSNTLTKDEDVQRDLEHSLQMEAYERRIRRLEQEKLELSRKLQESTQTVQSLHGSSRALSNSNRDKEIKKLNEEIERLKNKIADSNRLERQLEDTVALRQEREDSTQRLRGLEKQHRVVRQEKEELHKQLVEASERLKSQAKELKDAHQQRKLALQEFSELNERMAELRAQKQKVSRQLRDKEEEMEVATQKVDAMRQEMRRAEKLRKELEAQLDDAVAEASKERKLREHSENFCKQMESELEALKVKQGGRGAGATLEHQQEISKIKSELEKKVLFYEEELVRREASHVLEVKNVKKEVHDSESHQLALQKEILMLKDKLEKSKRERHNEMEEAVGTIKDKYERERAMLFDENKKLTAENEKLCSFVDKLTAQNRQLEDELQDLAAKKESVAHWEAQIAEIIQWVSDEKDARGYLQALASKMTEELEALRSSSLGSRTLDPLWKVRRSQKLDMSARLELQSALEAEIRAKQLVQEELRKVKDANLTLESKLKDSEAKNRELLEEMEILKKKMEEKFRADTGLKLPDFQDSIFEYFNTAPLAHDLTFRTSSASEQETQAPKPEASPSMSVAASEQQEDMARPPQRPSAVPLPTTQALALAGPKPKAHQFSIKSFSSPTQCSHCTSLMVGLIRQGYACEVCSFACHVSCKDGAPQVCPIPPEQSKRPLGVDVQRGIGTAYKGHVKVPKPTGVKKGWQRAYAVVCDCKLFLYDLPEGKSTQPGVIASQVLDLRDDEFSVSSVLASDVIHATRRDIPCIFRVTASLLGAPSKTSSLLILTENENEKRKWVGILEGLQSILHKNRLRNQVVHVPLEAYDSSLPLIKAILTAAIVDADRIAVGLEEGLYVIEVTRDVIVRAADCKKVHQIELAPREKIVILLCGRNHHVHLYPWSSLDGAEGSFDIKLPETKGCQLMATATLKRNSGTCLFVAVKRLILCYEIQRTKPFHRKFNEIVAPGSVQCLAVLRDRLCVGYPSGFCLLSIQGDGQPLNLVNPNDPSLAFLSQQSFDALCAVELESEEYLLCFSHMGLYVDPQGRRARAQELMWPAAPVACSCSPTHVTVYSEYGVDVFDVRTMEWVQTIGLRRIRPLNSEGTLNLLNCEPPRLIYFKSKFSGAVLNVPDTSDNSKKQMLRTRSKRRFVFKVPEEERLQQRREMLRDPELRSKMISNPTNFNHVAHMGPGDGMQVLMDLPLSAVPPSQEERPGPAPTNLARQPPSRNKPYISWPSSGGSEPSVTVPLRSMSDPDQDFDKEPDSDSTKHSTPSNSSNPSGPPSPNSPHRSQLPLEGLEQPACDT

With `Cc1cc2c(F)c(Oc3ncnn4cc(OC[C@@H](C)OC(=O)[C@H](C)N)c(C)c34)ccc2[nH]1` [BRIVANIB ALANINATE] the Kd [1] was > 30 µM (inactive), the Kd [2] was > 30 µM (inactive) and the Kd [3] was > 30 µM (inactive). The Kd [4] was > 30 µM (inactive), the Kd [5] was > 30 µM (inactive) and the Kd [6] was > 30 µM (inactive). The Kd [7] was > 30 µM (inactive) and the Kd [8] was > 30 µM (inactive).

For `C=CC(=O)N1CCC(Oc2cc3c(Nc4ccc(Cl)c(Cl)c4F)ncnc3cc2OC)CC1` [POZIOTINIB], the Kd [1] was > 30 µM (inactive), the Kd [2] was > 30 µM (inactive) and the Kd [3] was > 30 µM (inactive). The Kd [4] was > 30 µM (inactive), the Kd [5] was > 30 µM (inactive) and the Kd [6] was > 30 µM (inactive). For the same molecule, the Kd [7] was > 30 µM (inactive) and the Kd [8] was > 30 µM (inactive).

With `Cc1ccc(-n2nc(C(C)(C)C)cc2NC(=O)NCc2cc(F)ccc2Oc2ccc3c(cnn3CCO)c2)cc1` [PEXMETINIB] the Kd [1] was 1.14 µM (active), the Kd [2] was 5.23 µM (active) and the Kd [3] was > 30 µM (inactive). The Kd [4] was > 30 µM (inactive), the Kd [5] was > 30 µM (inactive) and the Kd [6] was > 30 µM (inactive). The Kd [7] was > 30 µM (inactive) and the pKd [8] was 5.67.

With `CC[C@H](Nc1ncnc2[nH]cnc12)c1nc2cccc(F)c2c(=O)n1-c1ccccc1` [IDELALISIB] the Kd [1] was > 30 µM (inactive), the Kd [2] was > 30 µM (inactive) and the Kd [3] was > 30 µM (inactive). The Kd [4] was > 30 µM (inactive), the Kd [5] was > 30 µM (inactive) and the Kd [6] was > 30 µM (inactive). The Kd [7] was > 30 µM (inactive) and the Kd [8] was > 30 µM (inactive).

With `CC[C@@H]1C(=O)N(C)c2cnc(Nc3ccc(C(=O)N[C@H]4CC[C@H](N5CCN(CC6CC6)CC5)CC4)cc3OC)nc2N1C(C)C` [VOLASERTIB] the Kd [1] was > 30 µM (inactive), the Kd [2] was > 30 µM (inactive) and the Kd [3] was > 30 µM (inactive). For the same molecule, the Kd [4] was > 30 µM (inactive), the Kd [5] was > 30 µM (inactive) and the Kd [6] was > 30 µM (inactive). For the same molecule, the Kd [7] was > 30 µM (inactive) and the Kd [8] was > 30 µM (inactive).

For `CN1CC[C@@H](c2c(O)cc(O)c3c(=O)cc(-c4ccccc4Cl)oc23)[C@@H]1CO`, the Kd [1] was > 30 µM (inactive), the Kd [2] was > 30 µM (inactive) and the Kd [3] was > 30 µM (inactive). The Kd [4] was > 30 µM (inactive), the Kd [5] was > 30 µM (inactive) and the Kd [6] was > 30 µM (inactive). For the same molecule, the Kd [7] was > 30 µM (inactive) and the Kd [8] was > 30 µM (inactive).

With `Cc1ccc(S(=O)(=O)Nc2nc3ccccc3nc2Nc2ccc3nsnc3c2)cc1` the Kd [1] was > 30 µM (inactive), the Kd [2] was > 30 µM (inactive) and the Kd [3] was > 30 µM (inactive). For the same molecule, the Kd [4] was > 30 µM (inactive), the Kd [5] was > 30 µM (inactive) and the Kd [6] was > 30 µM (inactive). The Kd [7] was > 30 µM (inactive) and the Kd [8] was > 30 µM (inactive).

In the case of `COCCNCc1ccc(-c2cc3nccc(Oc4ccc(NC(=S)NC(=O)Cc5ccc(F)cc5)cc4F)c3s2)nc1` [GLESATINIB], the Kd [1] was 1.49 µM (active), the Kd [2] was > 30 µM (inactive) and the Kd [3] was > 30 µM (inactive). The Kd [4] was > 30 µM (inactive), the Kd [5] was > 30 µM (inactive) and the Kd [6] was > 30 µM (inactive). The Kd [7] was > 30 µM (inactive) and the Kd [8] was 1.24 µM (active).
